Assay results: PubChem BioAssay AID504481 (NMMLSC, 2011)
Calls of active or inactive are those of the source.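 Rule for the calls: active = fold change below 0.65 in a panel strain, matching the primary screen cutoff; inactive = the rest.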

Key:
Experiment in all cases: GFP reporter expression in transducer deletion yeast, mechanism study for yeast TOR pathway modulator project, S. cerevisiae, transducer mutant strains, GFP-tagged proteins (AID 504481);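 note: 1 = DMSO wells as ratio of mean channel GFP fluorescence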
Conditions in all cases: S. cerevisiae transducer mutants, GFP-fusion expression, flow cytometry, 3 h
BY4741 = system: BY4741
YBR084C-A = system: YBR084C-A
YKL103C = system: YKL103C
YNL142W = system: YNL142W
YCL025C = system: YCL025C
YCR005C = system: YCR005C

`Cc1ccc(S(=O)(=O)c2ncccc2[N+](=O)[O-])cc1` was tested, and the fold change (BY4741) was 1 (inactive), the fold change (YBR084C-A) was 0.924 (inactive) and the fold change (YKL103C) was 1.33 (inactive). The fold change (YNL142W) was 0.701 (inactive), the fold change (YCL025C) was 0.853 (inactive) and the fold change (YCR005C) was 0.87 (inactive).

`O=C(NC(=S)NNC(=O)c1cnccn1)c1ccc(F)cc1` was tested, and the fold change (BY4741) was 1.1 (inactive), the fold change (YBR084C-A) was 0.875 (inactive) and the fold change (YKL103C) was 1.54. For the same compound, the fold change (YNL142W) was 1.23 (inactive), the fold change (YCL025C) was 1.02 (inactive) and the fold change (YCR005C) was 0.816 (inactive).

`CC(=O)SC(C[N+](=O)[O-])c1cn(C(C)=O)c2ccccc12` (stereo not drawn) was tested, and the fold change (BY4741) was 1 (inactive), the fold change (YBR084C-A) was 1.08 (inactive) and the fold change (YKL103C) was 1.48 (inactive). For the same compound, the fold change (YNL142W) was 0.785 (inactive), the fold change (YCL025C) was 0.77 (inactive) and the fold change (YCR005C) was 0.93 (inactive).

With `Cc1ccc(/C=C2/C(=O)ON=C2c2ccccc2)o1` the fold change (BY4741) was 1.42 (inactive), the fold change (YBR084C-A) was 0.942 (inactive) and the fold change (YKL103C) was 1.61. For the same compound, the fold change (YNL142W) was 1.23 (inactive), the fold change (YCL025C) was 0.837 (inactive) and the fold change (YCR005C) was 1.47 (inactive).

For `Cc1ccc(C(c2cc(Cl)c3cccnc3c2O)N2CCN(C)CC2)cc1` (stereo not drawn), the fold change (BY4741) was 0.978 (inactive), the fold change (YBR084C-A) was 1.03 (inactive) and the fold change (YKL103C) was 1.8. For the same compound, the fold change (YNL142W) was 1.03 (inactive), the fold change (YCL025C) was 1.06 (inactive) and the fold change (YCR005C) was 0.889 (inactive).

With `CC(Oc1ccc(Cl)cc1)C(=O)NNC(=S)NC(=O)c1ccco1` (stereo not drawn) the fold change (BY4741) was 1.49 (inactive), the fold change (YBR084C-A) was 1.09 (inactive) and the fold change (YKL103C) was 2.14. For the same compound, the fold change (YNL142W) was 1.33 (inactive), the fold change (YCL025C) was 0.906 (inactive) and the fold change (YCR005C) was 1.21 (inactive).

With `CSC1=NS(=O)(=O)c2c(C)nn(C)c2S1` the fold change (BY4741) was 0.902 (inactive), the fold change (YBR084C-A) was 0.857 (inactive) and the fold change (YKL103C) was 1.3 (inactive). For the same compound, the fold change (YNL142W) was 0.896 (inactive), the fold change (YCL025C) was 0.969 (inactive) and the fold change (YCR005C) was 0.841 (inactive).

`CC1=NN(c2ccccc2)C(=O)C1C(c1ccccc1[N+](=O)[O-])C(C#N)C#N` (stereo not drawn) was tested, and the fold change (BY4741) was 1.12 (inactive), the fold change (YBR084C-A) was 1.09 (inactive) and the fold change (YKL103C) was 1.82. For the same compound, the fold change (YNL142W) was 1.1 (inactive), the fold change (YCL025C) was 0.965 (inactive) and the fold change (YCR005C) was 1 (inactive).

In the case of `O=[N+]([O-])c1cc(S(=O)(=O)C(F)(F)F)ccc1Sc1nc2ccccc2s1`, the fold change (BY4741) is reported as 1.03 (inactive), the fold change (YBR084C-A) is reported as 1.03 (inactive) and the fold change (YKL103C) is reported as 2.03. For the same compound, the fold change (YNL142W) was 1.02 (inactive), the fold change (YCL025C) was 1.09 (inactive) and the fold change (YCR005C) was 1.09 (inactive).

For `COc1ccc([N+](=O)[O-])c(S(=O)(=O)c2ccc(Cl)cc2)n1`, the fold change (BY4741) was 1.1 (inactive), the fold change (YBR084C-A) was 0.841 (inactive) and the fold change (YKL103C) was 2.87. The fold change (YNL142W) was 1.28 (inactive), the fold change (YCL025C) was 1.31 (inactive) and the fold change (YCR005C) was 0.893 (inactive).

For `Clc1ccc(N=c2ssnc2Cl)cc1`, the fold change (BY4741) was 1.08 (inactive), the fold change (YBR084C-A) was 0.99 (inactive) and the fold change (YKL103C) was 1.45 (inactive). The fold change (YNL142W) was 0.957 (inactive), the fold change (YCL025C) was 0.846 (inactive) and the fold change (YCR005C) was 0.981 (inactive).

`COc1ccc(C(=O)NNC(=S)NC(=O)/C=C/c2cccs2)cc1` was tested, and the fold change (BY4741) was 1.03 (inactive), the fold change (YBR084C-A) was 1.23 (inactive) and the fold change (YKL103C) was 1.51. For the same compound, the fold change (YNL142W) was 1.13 (inactive), the fold change (YCL025C) was 1.38 (inactive) and the fold change (YCR005C) was 1.07 (inactive).

`O=[N+]([O-])c1ccc(O)c2ncccc12` was tested, and the fold change (BY4741) was 1.48 (inactive), the fold change (YBR084C-A) was 1.19 (inactive) and the fold change (YKL103C) was 2.22. The fold change (YNL142W) was 1.26 (inactive), the fold change (YCL025C) was 1.47 (inactive) and the fold change (YCR005C) was 1.21 (inactive).
